{"source": "patent US7795226B2", "about": "“Control of radiation injury” (Biotempt B.V., priority 2006, dated 2010)", "key": {"[1]": {"system": "LPS-induced septic shock in mice", "conditions": "single treatment after high dose LPS injection; cited from earlier work"}, "[2]": {"system": "C57B1/6 mice after Whole Body Irradiation", "assay": "Whole Body Irradiation 8.6 Gy, treatment from three hours after WBI", "format": "in vivo", "description": "“WBI” stands for Whole Body Irradiation. Radiation damage protection in vivo was assessed after WBI (6.5 to 9.8 Gy, Philips MG 30 at 81 cGy/min) on anesthetized C57B1/6 mice, and survival differences were measured by Kaplan-Meirer analysis. All groups of mice got the first injection with peptide or vehicle (control animals) three hours after the WBI. The group that got a placebo injection experienced 80% mortality, as predicted in this model. The dose of radiation of 8.6 Gray (=8.6 Gy) is known, in this species, to cause about an 80% mortality, so it is called the LD80 (lethal dose for 80%). The deaths started around Day 10, which is typical for what happens in WBI to animals or humans. By around Day 10, the gut lining is so damaged and leaky from the radiation that bacteria get into the circulation and cause gastrointestinal syndrome, and the bone marrow is so damaged that there is an insufficient number of white blood cells to fight the infection (“Bone Marrow Syndrome”), and death ensues. The group with “x” as the symbol got the first injection IV, and the second injection subcutaneously (SC) three hours after that first injection. 100% of these animals survived. […] To an outside observer, they would look like perfectly normal mice. The group with the triangle symbol got its first injection of the peptide via the SC route. Then it got additional SC injections every 48 hours, for a total of three doses (in addition to the first dose), meaning, on Day 3, Day 5, and Day 7. […] The group with the square symbol was identical in procedures to the group with the triangle symbol, except that the 48 hour SC injections continued on until a total of six doses had been injected (in addition to the first dose). So the dosing continued on until Day 13. […] When the animals got lower-level treatment (SC only), if the treatment was prolonged until the second week, here again, there was complete protection.\nThe group that got a placebo injection experienced 80% mortality, as predicted in this model. The dose of radiation given (8.6 Gray =8.6 Gy) is known, in this species, to cause about an 80% mortality, so it is called the LD80 (lethal dose for 80%). The deaths starting around Day 10, which is typical for what happens in WBI to animals or humans. By around Day 10, the gut lining is so damaged and leaky from the radiation that bacteria get into the circulation and cause sepsis because of Gastrointestinal (GI) Syndrome, and the bone marrow is so damaged that there is an insufficient number of white blood cells to fight the infection (“Bone Marrow Syndrome”), and death ensues.\nA first group of peptide-treated mice (group with “x” as the symbol in FIG. 1) got the first injection with AQGV (SEO ID NO:120) IV, and the second injection subcutaneously (SC) three hours after that first injection.\nA second group of mice got its first injection of the peptide via the SC route. Then it got additional SC injections every 48 hours, for a total of three doses (in addition to the first dose), meaning, on Day 3, Day 5, and Day 7.\nThe third group of mice was identical in procedures to the group with the second group, except that the q48 hour SC injections continued on until a total of six doses had been injected (in addition to the first dose). So the dosing continued on until Day 13."}, "[3]": {"system": "mice after Whole Body Irradiation", "assay": "Dose Reduction Factor (DRF) test, escalating WBI doses", "format": "in vivo", "conditions": "for Percent alive at day 30 / Percent dead at day 30 / The absolute number of animals alive at 30 days post WBI: 10 mg/kg s.c. single dose at day 3", "description": "Escalating doses of Whole Body Irradiation (WBI), with one single exposure given to any particular cohort, and the exposure dose going progressively higher, for each subsequent cohort. A single dose of peptide EA-230 (AQGV (SEQ ID NO:120)) was administered subcutaneously, but with treatment delayed until three days (72 hours) after the WBI. The test is called the Dose Reduction Factor (“DRF”), which is defined as ratio between the LD50 of the treated group to the LD50 of the control group. The LD50 refers to that dose which is lethal to 50% of the animals tested. An acceptable DRF value is 1.20.\nIn this example we report on escalating dose studies of Whole Body Irradiation (WBI) with one single exposure given to any particular cohort, and the exposure dose going progressively higher for each subsequent cohort. A single dose of peptide AQGV (SEO ID NO:120) (10 mg/kg) was administered subcutaneously, but with treatment delayed until three days (72 hours) after the WBI. The test is called the Dose Reduction Factor (“DRF”), which is defined as ratio between the LD50 of the treated group to the LD50 of the control group. The LD50 refers to that dose which is lethal to 50% of the animals tested.\nAn acceptable DRF ratio is a factor of at least 1.10; but preferred is at least 1.20 or even at least 1.25."}, "[4]": {"conditions": "first SC injection three hours after WBI, then SC every 48 hours, six additional doses"}, "[5]": {"conditions": "first injection IV three hours after WBI, second SC three hours later"}}}
{"substance": "VLPALP (hexamer peptide)", "values": [{"measurement": "septic shock in mice (in words)", "setting": "[1]", "value": "inhibited septic shock in mice"}]}
{"substance": "AQGV", "values": [{"measurement": "mortality after WBI (in words)", "setting": "[2]; [4]", "value": "no mortality whatsoever"}, {"measurement": "signs of sickness after WBI (in words)", "setting": "[2]; [4]", "value": "showed no signs of sickness"}, {"measurement": "mortality after WBI (in words)", "setting": "[2]; first SC injection three hours after WBI, then SC every 48 hours, three additional doses", "value": "only one of these animals died"}, {"measurement": "signs of sickness after WBI (in words)", "setting": "[2]; [5]", "value": "did not show any signs of sickness at all"}, {"measurement": "survival after WBI", "setting": "[2]; [5]", "value": 100, "unit": "%"}, {"measurement": "Dose Reduction Factor (factor by which the radiation dose has to be increased to kill 50% of the animals)", "setting": "[3]; 10 mg/kg s.c. single dose 72 hours after WBI, LD50 treated / LD50 control", "value": 1.25}, {"measurement": "radiation dose that kills 50% of the treated animals (LD50)", "setting": "[3]; 10 mg/kg s.c. single dose 72 hours after WBI, day 30", "value": "~10.4", "unit": "Gy"}, {"measurement": "Percent alive at day 30", "setting": "[3]; WBI 8.6 Gy", "value": 100, "unit": "%"}, {"measurement": "Percent dead at day 30", "setting": "[3]; WBI 8.6 Gy", "value": 0, "unit": "%"}, {"measurement": "The absolute number of animals alive at 30 days post WBI", "setting": "[3]; WBI 8.6 Gy", "value": 20}, {"measurement": "Percent alive at day 30", "setting": "[3]; WBI 9.2 Gy", "value": 100, "unit": "%"}, {"measurement": "Percent dead at day 30", "setting": "[3]; WBI 9.2 Gy", "value": 0, "unit": "%"}, {"measurement": "The absolute number of animals alive at 30 days post WBI", "setting": "[3]; WBI 9.2 Gy", "value": 10}, {"measurement": "Percent alive at day 30", "setting": "[3]; WBI 9.8 Gy", "value": 100, "unit": "%"}, {"measurement": "Percent dead at day 30", "setting": "[3]; WBI 9.8 Gy", "value": 0, "unit": "%"}, {"measurement": "The absolute number of animals alive at 30 days post WBI", "setting": "[3]; WBI 9.8 Gy", "value": 10}, {"measurement": "Percent alive at day 30", "setting": "[3]; WBI 10.4 Gy", "value": 40, "unit": "%"}, {"measurement": "Percent dead at day 30", "setting": "[3]; WBI 10.4 Gy", "value": 60, "unit": "%"}, {"measurement": "The absolute number of animals alive at 30 days post WBI", "setting": "[3]; WBI 10.4 Gy", "value": 4}, {"measurement": "Percent alive at day 30", "setting": "[3]; WBI 11.0 Gy", "value": 0, "unit": "%"}, {"measurement": "Percent dead at day 30", "setting": "[3]; WBI 11.0 Gy", "value": 100, "unit": "%"}, {"measurement": "The absolute number of animals alive at 30 days post WBI", "setting": "[3]; WBI 11.0 Gy", "value": 0}]}
